Test results published in EP0195433A1, “Amide derivatives processes for preparing them and use thereof” (GREEN CROSS CORPORATION, priority 1985, dated 1986).

Tests used:
[1] = system: secretion of gastric juice; test: Inhibition of gastric juice secretion, pyloric ligation (method of Shay et al.); type: in vivo, Wistar male rats; details: 25 mg/kg, i.p., 4 hours after pyloric ligation; for Total Peptic Activity: casein as substrate; for Total Acid Output: titration with 0.02N NaOH
Protocol: The activity of each of the test compounds in inhibiting the secretion of gastric juice was measured by pyloric ligation in accordance with the method of Shay et al. described in H. Shay, S.A. Komarov, S.S. Fels et al.; Gastroenterology, 5, 43 (1945). Groups each consisting of 8 - 10 Wistar male rats weighing 150 - 200 g which had been starved for 48 hours were subjected to abdominal incision under ether anesthetization. After pyloric ligation, the incised abdomen of each animal was closed and the animal was kept away from food and water for 4 hours. The test compound was suspended in 5% gum arabic (in physiological saline) to give a concentration of 5 mg/ml, and the suspension was administered intraperitoneally to each rat in a dose of 25 mg/kg immediately after the closure of the incised abdomen. Four hours later, each rat was sacrificed with chloroform and the stomach was extracted. The gastric juice contained in the stomach was withdrawn and checked for its volume, total acidity and total pepsin activity.
The total acidity was determined by titration with 0.02N NaOH using phenolphthalein as an indicator. The total pepsin activity was determined in accordance with the method of Anson; Brit. J. Pharmacol., 13, 54 (1958) using casein as a substrate.

carrageenan paw edema = test: Anti-inflammatory activity, carrageenan paw edema method; type: in vivo, SD male rats; details: 25 mg/kg, i.p., 30 minutes before carrageenan; four hours after injection
Protocol: SD male rats (body weight: 150 - 180 g) were starved overnight and 25 mg/kg of a selected test compound was administered intraperitoneally to each rat. Thirty minutes later, 0.1 ml of a 1.5% solution of carrageenan in physiological saline was injected under the skin of the paw of a hind leg. Four hours after injection, the volume of the treated leg was measured with a mercury manometer and compared with the value prior to carrageenan injection in order to calculate the percentages of edema and its inhibition. Each of the test compounds was administered in a concentration of 5 mg/ml as a suspension in 5% gum arabic in physiological saline.

Aspirin ulcers = test: Aspirin ulcer; type: in vivo, Wistar male rats; details: 20 mg/kg intraperitoneally, 7 hours; for Ulcer index: aspirin 150 mg/kg orally, total length of ulcers
Protocol: Aspirin ulcers were produced in Wistar male rats (body weight: 150 - 200 g) in accordance with the method described in S. Okabe, K. Takeuchi et al.; Jpn. J. Pharmacol., 24, 363 (1974).
The rats were starved for 24 hours and subjected to pyloric ligation. Immediately thereafter, 150 mg/kg of aspirin suspended in 5% gum arabic was administrered orally to each rat which was simultaneously injected with a selected test compound (20 mg/kg) intraperitoneally.
The rats were kept away from food and water for 7 hours. Thereafter, the stomach was extracted from each animal under ether anesthetization and fixed in formalin. The total length of the ulcers occurring in the glands of the extracted stomach was measured and used as an ulcer index.

HCl-ethanol ulcers = test: HCl-ethanol ulcer; type: in vivo, Wistar male rats; details: for Percent inhibition: 20 mg/kg intraperitoneally; for Ulcer index: 20 mg/kg intraperitoneally 2 hours before 1.5 ml of 15 mM HCl in 60% ethanol orally, 1 hour
Protocol: HCl-ethanol ulcers were induced in Wistar male rats in accordance with the method described in S. Okabe, S. Ueki et al.; Oyo Yakuri, 27, 829 (1984).
The procedures of (2) were repeated except that 2 hours after the intraperitoneal injection of a selected test compound, 1.5 ml of 15 mM HC1 in 60% ethanol was administrered orally to each rat, which thereafter was kept for an additional 1 hour.

Stress ulcers = test: Stress ulcer (restraint and water immersion); type: in vivo, Wistar male rats; details: 20 mg/kg intraperitoneally; for Ulcer index: restrained and immersed in water (22 ± 1°C) for 7 hours
Protocol: Stress ulcers were induced in Wistar male rats in accordance with the method described in K. Takagi and S. Okabe; Jpn. J. Pharmacol., 18, 9 (1968).
The procedures of (2) were repeated except that the rats were restrained immediately after the administration of a selected test compound and immersed in water (22 ± 1°C) for 7 hours.

Acetic acid ulcers = test: Acetic acid ulcer; type: in vivo, Wistar male rats; details: 14 consecutive days
Protocol: .Acetic acid ulcers were induced in Wistar male rats in accordance with the method described in K. Takagi, S. Okabe et al.,; Jpn. J. Pharmacol., 19, 418 (1969).
Starting on the day of operation, each of the test compounds was administered orally to each rat for 14 consecutive days on a two-dose-a-day basis. The rats were starved for 24 hours after administration of the final dose. They then were sacrificed with chloroform and the stomach was extracted from each animal and fixed in formalin. The product of the length and breadth of each […] was determined and used as an ulcer index.

granuloma pouch = test: Anti-inflammatory activity, granuloma pouch method; type: in vivo, SD male rats; details: 25 mg/kg/day orally for 8 consecutive days, eight days after croton oil injection; for Weight of Pouch: wet weight
Protocol: Pouches were made under the dorsal skin of SD male rats (body weight: 150 - 180 g) by injecting 20 ml of N2 gas in accordance with the method described in E. Itoga and Y. Miyake; Oyo yakuri, 66, 316 (1970). The rats were subsequently injected with 1 ml of 1% croton oil dissolved in cottonseed oil. Eight days after injection, the wet weight of each pouch and the volume of exudate therefrom were measured. Each of the test compounds was administered orally for 8 consecutive days on a single-dose-a-day basis..

SMILES: CCCCCCCCC=CC(=O)O [2-Undecenoic acid, reference compound]
- Gastric Volume [1]: 2.46 ml/100 g wt.
- Total Peptic Activity [1]: 159.8 mg as tyrosine/ 100 g wt.
- Total Acid Output [1]: 318.1 μ Eq/100 g wt.

SMILES: CCCCCCCCCCC=CC(=O)NCCSCC(N)=O [Compound 8, NH2COCH2SCH2CH2NH-COCH=CH(CH2)9CH3]
- Percent inhibitaion (carrageenan paw edema): 49.6%
- Percentage of edema (carrageenan paw edema): 24.3%

SMILES: CCCCCCCCC=CC(=O)NCCSSCCNC(=O)C=CCCCCCCCC [Compound 1, [SCH2CH2NH-COCH=CH(CH2)7CH3]2]
- Gastric Volume [1]: 2.10 ml/100 g wt.
- Total Peptic Activity [1]: 139.9 mg as tyrosine/ 100 g wt.
- Total Acid Output [1]: 229.2 μ Eq/100 g wt.

SMILES: CCCCCCCCCCC=CC(=O)NCCSSCCNC(=O)C=CCCCCCCCCCC [Compound 7, [SCH2CH2NH-COCH=CH(CH2)9CH3]2]
- Percent inhibitaion (carrageenan paw edema): 30.7%
- Percentage of edema (carrageenan paw edema): 33.4%

SMILES: CCCCCCCC=CC(=O)NCCSCC(N)=O [Compound 6, NH2COCH2SCH2CH2NH-COCH=CH(CH2)6CH3]
- Gastric Volume [1]: 0.93 ml/100 g wt.
- Total Peptic Activity [1]: 81.5 mg as tyrosine/ 100 g wt.
- Total Acid Output [1]: 91.1 μ Eq/100 g wt.
- Percent inhibition (Aspirin ulcers): 49.7%
- Ulcer index (Aspirin ulcers): 8.6
- Percent inhibition (HCl-ethanol ulcers): 69.7%
- Ulcer index (HCl-ethanol ulcers): 12.5
- Percent inhibition (Stress ulcers): 54.3%
- Ulcer index (Stress ulcers): 13.3
- Percent healing (Acetic acid ulcers; 100 x 2 mg/kg/day orally): 21.0%
- Ulcer index (Acetic acid ulcers; 100 x 2 mg/kg/day orally): 45.8
- Percent healing (Acetic acid ulcers; 200 x 2 mg/kg/day orally): 27.4%
- Ulcer index (Acetic acid ulcers; 200 x 2 mg/kg/day orally): 42.1
- Percent healing (Acetic acid ulcers; 400 x 2 mg/kg/day orally): 34.0%
- Ulcer index (Acetic acid ulcers; 400 x 2 mg/kg/day orally): 38.3

SMILES: CCCCCC=CC(=O)NCCSCC(N)=O [Compound 4, NH2COCH2SCH2CH2NH-COCH=CH(CH2)4CH3]
- Percent inhibitaion (carrageenan paw edema): 45.2%
- Percentage of edema (carrageenan paw edema): 28.3%
- Volume of Exudate (granuloma pouch): 10.6 mL
- Weight of Pouch (granuloma pouch): 3.81 g

SMILES: CCCCCCCCC=CC(=O)NCCSCC(N)=O [Compound 2, NH2COCH2SCH2CH2NH-COCH=CH(CH2)7CH3]
- Gastric Volume [1]: 0.97 ml/100 g wt.
- Total Peptic Activity [1]: 70.9 mg as tyrosine/ 100 g wt.
- Total Acid Output [1]: 97.4 μ Eq/100 g wt.
- Percent inhibition (Aspirin ulcers): 76.4%
- Ulcer index (Aspirin ulcers): 4.0
- Percent inhibition (HCl-ethanol ulcers): 70.5%
- Ulcer index (HCl-ethanol ulcers): 12.2
- Percent inhibition (Stress ulcers): 69.1%
- Ulcer index (Stress ulcers): 9.0

SMILES: CCCCCC=CC(=O)NCCSSCCNC(=O)C=CCCCCC [Compound 3, [SCH2CH2NH-COCH=CH(CH2)4CH3]2]
- Percent inhibitaion (carrageenan paw edema): 29.7%
- Percentage of edema (carrageenan paw edema): 36.3%
- Volume of Exudate (granuloma pouch): 8.5 mL
- Weight of Pouch (granuloma pouch): 4.34 g
